Assay results from ChEMBL document CHEMBL1127148, “The squalestatins: novel inhibitors of squalene synthase. The optimal C1 chain-length requirements” (Bioorg Med Chem Lett, 1993).

Columns and labels:
[1] = biological target: T1, Squalene synthase (Rattus norvegicus, UniProt Q02769); test: Inhibition of Squalene synthase activity in juvenile male rat liver microsomes; set-up: species or system Microsome
T1 sequence (Q02769 whole entry): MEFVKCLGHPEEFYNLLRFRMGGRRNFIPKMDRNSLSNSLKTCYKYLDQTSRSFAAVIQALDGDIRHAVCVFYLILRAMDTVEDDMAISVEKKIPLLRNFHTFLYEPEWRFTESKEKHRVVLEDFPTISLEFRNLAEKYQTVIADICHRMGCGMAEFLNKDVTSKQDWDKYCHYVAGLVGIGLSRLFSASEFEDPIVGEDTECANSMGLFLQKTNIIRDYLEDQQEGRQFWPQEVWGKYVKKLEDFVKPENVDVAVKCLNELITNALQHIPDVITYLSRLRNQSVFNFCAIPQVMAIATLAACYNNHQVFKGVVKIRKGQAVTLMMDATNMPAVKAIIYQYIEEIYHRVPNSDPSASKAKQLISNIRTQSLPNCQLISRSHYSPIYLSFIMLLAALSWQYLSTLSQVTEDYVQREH

[2] = biological target: T1, Squalene synthase; test: Tested in vitro for the inhibition of Squalene synthase activity, measured using juvenile male rat liver microsomes; set-up: species or system Microsome
[3] = system: Rattus norvegicus; test: Tested for daily dose at which compound shows 50% reduction in serum cholesterol levels after oral administration; type: functional

| SMILES | IC50 [1] | IC50 [2] | further results |
| --- | --- | --- | --- |
| C=C(CC[C@]12O[C@H](C(=O)O)[C@@](O)(C(=O)O)[C@](C(=O)O)(O1)[C@H](OC(=O)/C=C/[C@@H](C)C[C@@H](C)CC)[C@H]2O)[C@H](O)[C@@H](C)Cc1ccccc1 | 5 nM |  |  |
| CCCCCCC(=O)CCC[C@]12O[C@H](C(=O)O)[C@@](O)(C(=O)O)[C@](C(=O)O)(O1)[C@H](OC(=O)CC[C@@H](C)C[C@@H](C)CC)[C@H]2O | > 500 nM |  |  |
| CC[C@H](C)C[C@H](C)CCC(=O)O[C@@H]1[C@@H](O)[C@@]2(CCCC(=O)CCc3ccccc3)O[C@H](C(=O)O)[C@@](O)(C(=O)O)[C@]1(C(=O)O)O2 | 56 nM |  |  |
| CC[C@H](C)C[C@H](C)CCC(=O)O[C@@H]1[C@@H](O)[C@@]2(CCC(O)[C@H](O)[C@@H](C)Cc3ccccc3)O[C@H](C(=O)O)[C@@](O)(C(=O)O)[C@]1(C(=O)O)O2 (stereo partly drawn) |  | 4 nM |  |
| CC[C@H](C)C[C@H](C)CCC(=O)O[C@@H]1[C@@H](O)[C@@]2(CCC(C)C(=O)[C@@H](C)Cc3ccccc3)O[C@H](C(=O)O)[C@@](O)(C(=O)O)[C@]1(C(=O)O)O2 (single isomer, unassigned; isomer 2) |  | 130 nM |  |
| CC[C@H](C)C[C@H](C)CCC(=O)O[C@@H]1[C@@H](O)[C@@]2(CCC(C)C(=O)[C@@H](C)Cc3ccccc3)O[C@H](C(=O)O)[C@@](O)(C(=O)O)[C@]1(C(=O)O)O2 (stereo in doubt) |  | 16 nM |  |
| CC[C@H](C)C[C@H](C)CCC(=O)O[C@@H]1[C@@H](O)[C@@]2(CCC(=O)[C@H](O)[C@@H](C)Cc3ccccc3)O[C@H](C(=O)O)[C@@](O)(C(=O)O)[C@]1(C(=O)O)O2 |  | 5 nM |  |
| CC[C@H](C)C[C@H](C)CCC(=O)O[C@@H]1[C@@H](O)[C@@]2(CCC(C)=O)O[C@H](C(=O)O)[C@@](O)(C(=O)O)[C@]1(C(=O)O)O2 | 470 nM |  |  |
| CC[C@H](C)C[C@H](C)CCC(=O)O[C@@H]1[C@@H](O)[C@@]2(CCO)O[C@H](C(=O)O)[C@@](O)(C(=O)O)[C@]1(C(=O)O)O2 | > 500 nM |  |  |
| CC[C@H](C)C[C@H](C)CCC(=O)O[C@@H]1[C@@H](O)[C@@]2(CC/C(C)=C/[C@@H](C)Cc3ccccc3)O[C@H](C(=O)O)[C@@](O)(C(=O)O)[C@]1(C(=O)O)O2 |  | 63 nM |  |
| CC[C@H](C)C[C@H](C)CCC(=O)O[C@@H]1[C@@H](O)[C@@]2(CCCC(=O)C(C)Cc3ccccc3)O[C@H](C(=O)O)[C@@](O)(C(=O)O)[C@]1(C(=O)O)O2 (stereo partly drawn) | 29 nM |  |  |
| CC[C@H](C)C[C@H](C)CCC(=O)O[C@@H]1[C@@H](O)[C@@]2(CCCC(=O)CCCc3ccccc3)O[C@H](C(=O)O)[C@@](O)(C(=O)O)[C@]1(C(=O)O)O2 | 152 nM |  |  |
| C=C(CC[C@]12O[C@H](C(=O)O)[C@@](O)(C(=O)O)[C@](C(=O)O)(O1)[C@H](OC(=O)/C=C/[C@@H](C)C[C@@H](C)CC)[C@H]2O)[C@H](OC(C)=O)[C@@H](C)Cc1ccccc1 |  |  | Dose [3]: 10 mg/kg |
| CC[C@H](C)C[C@H](C)CCC(=O)O[C@@H]1[C@@H](O)[C@@]2(C/C=C(\C)[C@H](O)[C@@H](C)Cc3ccccc3)O[C@H](C(=O)O)[C@@](O)(C(=O)O)[C@]1(C(=O)O)O2 |  | 17 nM |  |
| C=C(CC[C@]12O[C@H](C(=O)O)[C@@](O)(C(=O)O)[C@](C(=O)O)(O1)[C@H](OC(=O)CC[C@@H](C)C[C@@H](C)CC)[C@H]2O)[C@H](O)[C@@H](C)Cc1ccccc1 |  | 2 nM |  |
| CC[C@H](C)C[C@H](C)CCC(=O)O[C@@H]1[C@@H](O)[C@@]2(CCC(C)C(=O)CCc3ccccc3)O[C@H](C(=O)O)[C@@](O)(C(=O)O)[C@]1(C(=O)O)O2 (stereo partly drawn) | 48 nM |  |  |
| CCCC(=O)CCC[C@]12O[C@H](C(=O)O)[C@@](O)(C(=O)O)[C@](C(=O)O)(O1)[C@H](OC(=O)CC[C@@H](C)C[C@@H](C)CC)[C@H]2O | > 500 nM |  |  |
| CC[C@H](C)C[C@H](C)CCC(=O)O[C@@H]1[C@@H](O)[C@@]2(CCCC(=O)Cc3ccccc3)O[C@H](C(=O)O)[C@@](O)(C(=O)O)[C@]1(C(=O)O)O2 | > 500 nM |  |  |
